Several values for one entry are separate records, joined by “and”; a condition that tells them apart may be missing. Identical values can stand only once. Entries after “also recorded” stand apart in the source; their conditions may differ. Marks after values point to notes of the source that are not given here.
Legend:
human melanoma = test: Number of cells with melanin in inoculated human melanoma (Goryaev's chamber); type: in vivo; details: 4.5 mg/kg p.o. daily for 3 weeks
Experimental: Mice with subcutaneously inoculated human melanoma as described in Example 1 were daily p.o. dosed with Dicarbamine at a higher single dose (4.5 mg/kg for 3 weeks from the moment of the tumor transplantation).
Animals were sacrificed three weeks after the tumor transplantation. By the time of sacrifice, the volume of the tumors was on average 150 mm^3. Following sacrifice, the tumors were excised from the mice and disintegrated with Versen solution, and the cell fraction containing cells with pigment was isolated. The number of cells with pigment was calculated in the Goryaev's chamber using light microscopy.

Friend erythroblastosis [1] = test: Subcutaneously inoculated Friend erythroblastosis growth; type: in vivo, mice
Experimental: The studies were conducted on male mice hybrid 100 BDF1 that were divided into groups containing 10 mice each. Lineal DBA2 mice were used for passaging FEB in vivo.
A strain of Friend erythroblastosis was obtained from the bank of tumor strains of the GU RCRC named after N. N. Blokhin of the RAMS. It was twice passaged intraperitoneally using generations 3-8 in subcutaneous inoculation. The inoculation was done using a cellular suspension of 1×10^6 cells in 0.3 ml […].
Solutions of the tested compounds were intra-gastrically daily administered to mice using a probe from day 3 to day 7 after tumor inoculation.
Therapeutic efficacy was assessed on the basis of tumor growth inhibition (TGI, %) and an average life span (ALS). Increase in life span was determined by the commonly accepted criterion T/C (%), which was calculated as a ratio between ALS in the test and control groups. Tumor growth rate Vt/V1 was calculated on the basis of change growth in average tumor volumes.

Friend erythroblastosis [2] = test: Friend erythroblastosis, histological examination; type: in vivo, mice
Experimental: (§1) Friend erythroblastosis which was inoculated subcutaneously to DBA2 female mice via spleen cells was investigated.
(§2) Group 2—Reaferon at dose 100 thousand IU/kg was administered daily s.c. from day 3 to day 7 after inoculation;
(§3) Group 3—Dicarbamine at a single dose 4.5 mg/kg was administered p.o. from day 3 to day 7 after inoculation;
(§4) Group 4—Dicarbamine and Reaferon were administered simultaneously according to a similar scheme.
(§5) Material for light microscopy was taken from sacrificed animals at days 3, 7 and 14 after termination of therapy or administration of a physiological saline. Material for electronic microscopy was taken at days 7 and 14.
For histological examination, tumor pieces were fixed in 10% neutral formalin and imbedded into paraffin; slices obtained were stained with hematoxylin-eosin and examined for glycogen (polysaccharide) content using the periodic acid Schiff reaction, for RNA content according to Brachet, and for lipids and iron. Slices were examined and photographed using a Polivar light microscope (Austria).
The percentage of mitoses and cells with apoptosis, as well as areas of necrosis, were assessed during histological examination.

Friend erythroblastosis [3] = test: Friend erythroblastosis, electronic microscopy of cell types; type: in vivo, mice
Experimental: as §1, §2, §3, §4, §5
For electronic microscopy, tumor pieces were fixed in a 2.5% glutaraldehyde solution and 1% osmium tetroxide and embedded in EPON-812. Semi-thin and ultra-thin slices were prepared on the LKB-III ultratome (Sweden). The obtained semi-thin slices were stained with Toluidine blue and examined through the light microscope. Ultra-thin slices were additionally stained with uranyl acetate and lead citrate; the slices examined and photographed in the JEOL 1200 EX-II electronic microscope (Japan).
The percentage of cells with different types of differentiation (blast cells, lymphocytes and granular leukocytes) was calculated during electronic microscopy for quantitative assessment.

[4] = Complete blood analysis of individual ovarian cancer patients; type: in vivo, human; details: for Platelets: in 10^9/L (unit assumed)
Experimental: The effect of Dicarbamine was studied in 13 patients with stage III-IV ovarian cancer who underwent 77 courses of the chemotherapy according to the scheme: 400 mg/m^2 Carboplatin i.v. drop-wise, once +600 mg/m^2 Cyclophosphan i.v. drop-wise, once; the courses were repeated in 28 days. Dicarbamine was prescribed daily at dose 100 mg orally after meals beginning 5 days prior to the first course and then for three weeks. Dosing duration was 26 days, course dose being 2600 mg. Dicarbamine was given again 5 days prior to the second chemotherapy course, and dosing was continued for 21 days. Total duration of Dicarbamine intake during two the chemotherapy courses was 52 days.
Hematopoiesis parameters were assessed dynamically many times before and after conducted the chemotherapy (control) as well as dynamically before and after Dicarbamine dosing in the test group. Below hematopoiesis parameters in individual patients who received the chemotherapy according to the indicated scheme with Dicarbamine or without it are presented.

[5] = 1.5 mg/kg daily for 5 days, day 8
[6] = 1.5 mg/kg daily for 5 days, day 13
[7] = 1.5 mg/kg daily for 5 days, day 19
[8] = 4.5 mg/kg daily for 5 days, day 8
[9] = 4.5 mg/kg daily for 5 days, day 13
[10] = 4.5 mg/kg daily for 5 days, day 19
[11] = Dicarbamine 4.5 mg/kg p.o. days 3-7
[12] = with Dicarbamine, Day 0, before starting Dicarbamine
[13] = with Dicarbamine, Day 5, before starting course 1 of CT
[14] = with Dicarbamine, Day 21, after termination of Dicarbamine intake
[15] = with Dicarbamine, Day 33, before course 2 of CT
[16] = with Dicarbamine, course 2, Day 28 after course 1 of CT
[17] = with Dicarbamine, course 2, Day 33
[18] = with Dicarbamine, course 2, Day 54
[19] = with Dicarbamine, course 2, Day 61

In the case of `O=C(O)CCCC(=O)NCCc1c[nH]cn1` [Dicarbamine], the “increase of number of cells synthesizing melanin vs control” value (human melanoma) is reported as 3 fold, the “Number of cells with melanin” value (human melanoma; individual tumors 1-7) is reported as 95 (2×) and 110 and 130 and 106 and 111 (2×) and the “Relative tumor volumes Vt/V1 at days after tumor inoculation” value (Friend erythroblastosis [1]; [5]) is reported as 1.0. For the same molecule, the Tumor growth inhibition (Friend erythroblastosis [1]; [5]) was 61%, the “Relative tumor volumes Vt/V1” value (Friend erythroblastosis [1]; [6]) was 1.56 and the Tumor growth inhibition (Friend erythroblastosis [1]; [6]) was 78* %. For the same molecule, the “Relative tumor volumes Vt/V1” value (Friend erythroblastosis [1]; [7]) was 3.0, the Tumor growth inhibition (Friend erythroblastosis [1]; [7]) was 55% and the “Relative tumor volumes Vt/V1” value (Friend erythroblastosis [1]; [8]) was 1.0. For the same molecule, the Tumor growth inhibition (Friend erythroblastosis [1]; [8]) was 62%, the “Relative tumor volumes Vt/V1” value (Friend erythroblastosis [1]; [9]) was 2.3 and the Tumor growth inhibition (Friend erythroblastosis [1]; [9]) was 58%. The “Relative tumor volumes Vt/V1” value (Friend erythroblastosis [1]; [10]) was 3.76, the Tumor growth inhibition (Friend erythroblastosis [1]; [10]) was 38% and the Apoptosis (Friend erythroblastosis [2]; Dicarbamine 4.5 mg/kg p.o. + Reaferon 100 thousand IU/kg s.c., day 3) was 0.2-0.5%. The “area of necrosis as compared to group I (control)” value (Friend erythroblastosis [2]; [11]) was “did not significantly change”, the “mitotic activity as compared to the control” value (Friend erythroblastosis [2]; [11]) was “remained within the limits of the control figures” and the “area of necrosis and mitotic activity as compared to group II (Reaferon)” value (Friend erythroblastosis [2]; Dicarbamine + Reaferon) was “did not show significant shifts”. For the same molecule, the Apoptosis (Friend erythroblastosis [2]; Dicarbamine + Reaferon, days 7 and 14) was 0.5%, the “decrease of the quantity of immature tumor cells vs control” value (Friend erythroblastosis [3]; Dicarbamine 4.5 mg/kg) was 15-20% and the “increase of the quantity of lymphocytes vs control” value (Friend erythroblastosis [3]; Dicarbamine 4.5 mg/kg) was 4 fold. The number of lymphocytes (Friend erythroblastosis [3]; Dicarbamine + Reaferon) was 18-25%, the “quantity of large blast type cells” value (Friend erythroblastosis [3]; Dicarbamine + Reaferon) was 70-80% and the “quantity of leukocytes (granular)” value (Friend erythroblastosis [3]; Dicarbamine + Reaferon) was 2-5%. The “quantity of granulocytes (granular leukocytes)” value (Friend erythroblastosis [3]; single agent) was 2-5%, the “quantity of lymphocytes (lymphoid cells)” value (Friend erythroblastosis [3]; single agent) was 18-25% and the “quantity of large blast type cells” value (Friend erythroblastosis [3]; single agent (Dicarbamine 4.5 mg/kg p.o. or Reaferon 100 thousand IU/kg s.c., days 3-7)) was 70-80%. The Leukocytes ([4]; chemotherapy + Dicarbamine 100 mg daily, individual patients, course 1, Day 0, before starting Dicarbamine) was 5.9 10^9/l and 7.4 10^9/l and 6.6 10^9/l, the “timing of the third course of CT” value ([4]; chemotherapy with Dicarbamine, individual patients) was “in time; also recorded: at term” and the Neutrophils [4, 12] was 4.2 10^9/l and 5.7 10^9/l and 5.0 10^9/l. The Platelets [4, 12] was 170 and 174, the Leukocytes [4, 13] was 5.5 10^9/l and 7.2 10^9/l and 5.9 10^9/l and the Neutrophils [4, 13] was 4.0 10^9/l and 5.0 10^9/l and 4.2 10^9/l. For the same molecule, the Platelets [4, 13] was 164 and 165 and 172, the Leukocytes [4, 14] was 4.7 10^9/l and 6.6 10^9/l and 5.5 10^9/l and the Neutrophils [4, 14] was 3.3 10^9/l and 5.2 10^9/l and 4.4 10^9/l. For the same molecule, the Platelets [4, 14] was 160 and 162 and 166, the Leukocytes [4, 15] was 4.0 10^9/l and 5.2 10^9/l and 5.0 10^9/l and the Neutrophils [4, 15] was 2.9 10^9/l and 3.8 10^9/l and 3.4 10^9/l. For the same molecule, the Platelets [4, 15] was 158 and 167 and 164, the Neutrophils [4, 16] was 3.2 10^9/l and 5.2 10^9/l and 3.0 10^9/l and the Leukocytes ([4]; with Dicarbamine, course 2, Day 28 after course 1 of CT, before starting Dicarbamine) was 4.9 10^9/l and 7.8 10^9/l and 5.6 10^9/l. The Platelets [4, 16] was 180 and 165 and 170, the Neutrophils [4, 17] was 3.3 10^9/l and 6.0 10^9/l and 3.2 10^9/l and the Leukocytes ([4]; with Dicarbamine, course 2, Day 33, before starting course of CT) was 5.0 10^9/l and 8.2 10^9/l and 5.8 10^9/l. The Platelets [4, 17] was 170 and 160, the Neutrophils [4, 18] was 3.1 10^9/l and 6.2 10^9/l and 3.4 10^9/l and the Leukocytes ([4]; with Dicarbamine, course 2, Day 54, after termination of Dicarbamine intake) was 4.2 10^9/l and 7.6 10^9/l and 5.7 10^9/l. For the same molecule, the Platelets [4, 18] was 160 and 162 and 176, the Neutrophils [4, 19] was 3.0 10^9/l and 5.8 10^9/l and 3.2 10^9/l and the Leukocytes ([4]; with Dicarbamine, course 2, Day 61, before course 3 of CT) was 4.2 10^9/l and 7.2 10^9/l and 5.5 10^9/l. For the same molecule, the Platelets [4, 19] was 160 and 157 and 165.
